Measurements taken from patent publication US11433036B2, “Oxprenolol compositions for treating cancer” (priority 2013, dated 2022).
“Also recorded” adds a separate entry of the source. Like-named read-outs stand apart in the source and are kept apart here.

Legend:
[1] = tested on: Yoshida Hepatoma Model; settings: for change in fat mass: FIG. 14
Excerpt: (§1) Ascites hepatoma Yoshida AH-130 cells (10^3 cells) were inoculated into about 200 gram male Wistar rats by i.p. injection. Alternatively animals received saline injection only (sham). The day after inoculation animals were randomized into various groups and then received twice daily treatment with either placebo or various test compositions by oral gavage over a period of up to 17 days. The primary endpoints of the study included assessment of body weight, body composition (with and without tumor), and survival. Body composition was monitored by NMR. Echocardiography was used in instances to monitor condition of the heart. Organ weight was assessed at the end of the study (or after death) as a secondary endpoint. In addition, locomotor activity and food intake were also assessed. FIG. 1 provides a diagram showing the design study. R- and S-oxprenolol were manufactured to order by Peakdale Molecular, Peakdale Science Park, Sheffield Road. Chapel-en-le-Frith, High Peak SK23 0PG, UK
To study the effect of the test compounds on fat mass, the fat mass were determined at the end of the study.
To study the effect of the test compounds as mixtures of enantiomers on fat mass, the fat mass were determined at the end of the study.

[2] = tested on: Yoshida Hepatoma Model; settings: for change in lean body mass/days alive: FIG. 11B
Excerpt: as §1
To study the effect of the test compounds on lean body mass, lean mass was determined at the end of the study.
To study the effect of the test compounds as mixtures of enantiomers on lean body mass, lean mass was determined at the end of the study.

[3] = tested on: Yoshida Hepatoma Model; settings: for change in body weight: S-oxprenolol 20 mg/kg/day vs racemic mixture 40 mg/kg/day, FIG. 8; for change of body weight: 5, 12.5, 25 or 50 mg/kg/day, FIG. 7
Excerpt: as §1
To study the effect of the test compounds on body weight, body weight was monitored over time.
To study the effect of the test compounds as mixtures of enantiomers on body weight, body weight was monitored over time.

[4] = tested on: Yoshida Hepatoma Model; test: Survival in Yoshida hepatoma model; format: in vivo, male Wistar rats; settings: for survival: animal inoculated with hepatocellular carcinoma cells, summary statement
Excerpt: as §1
To study the effect of S-oxprenolol and R-oxprenolol on survival, survival was monitored over time.

[5] = tested on: Kelly (neuroblastoma); settings: Kelly cells; BrdU incorporation and XTT assay; FIG. 20
Procedure: (§2) The effect of the test compounds on tumor growth was also evaluated in an in vitro experiment with various tumor cells, namely, Kelly (neuroblastoma), Hela-93 (cervix carcinoma), and B16V (melanoma). Cell growth was assessed by BrdU incorporation (left of FIG. 20) and XTT assay (right of FIG. 20). Doxorubicin was used as a positive control.

[6] = tested on: Hela-93 (cervix carcinoma); settings: Hela-93 cells; BrdU incorporation and XTT assay; FIG. 20
Procedure: as §2

[7] = tested on: B16V (melanoma); settings: B16V cells; BrdU incorporation and XTT assay; FIG. 20
Procedure: as §2

[8] = tested on: Yoshida Hepatoma Model; settings: 5, 12.5, 25 or 50 mg/kg/day; end of study; FIGS. 13A-13D
Excerpt: as §1
To study the effect of the test compounds on skeletal muscle atrophy and heart weight, the skeletal muscle mass and heart weight were determined at the end of the study.

[9] = tested on: Yoshida Hepatoma Model; settings: Day 11; for food intake: FIG. 17; for locomotor activity: FIG. 18
Excerpt: as §1
To study the effect of the test compounds on quality of life, parameters of quality of life such as food intake and locomotor activity were assessed at Day 11.

[10] = tested on: Yoshida Hepatoma Model; settings: 5, 12.5, 25 or 50 mg/kg/day vs placebo; end of study; FIGS. 19A and 19B
Excerpt: as §1
To study the effect of the test compounds on tumor growth, tumor growth was assessed at the end of the study.

[11] = S-oxprenolol 20 mg/kg/day vs racemic mixture 40 mg/kg/day, FIG. 16A
[12] = S-oxprenolol 20 mg/kg/day vs racemic mixture 40 mg/kg/day, FIG. 16B
[13] = S-oxprenolol 20 mg/kg/day vs racemic mixture 40 mg/kg/day, FIG. 11A
[14] = S-oxprenolol 20 mg/kg/day vs racemic mixture 40 mg/kg/day
[15] = S-oxprenolol 20 mg/kg/day vs racemic mixture 40 mg/kg/day (same amount of S-oxprenolol), FIG. 3
[16] = 5, 12.5, 25 or 50 mg/kg/day, FIG. 15A
[17] = 5, 12.5, 25 or 50 mg/kg/day, FIG. 15B
[18] = 5, 12.5, 25 or 50 mg/kg/day, FIG. 10
[19] = 25 mg/kg/day or 50 mg/kg/day, oral gavage twice daily, up to 17 days, FIG. 2
[20] = 5 mg/kg/day or 25 mg/kg/day vs placebo
[21] = 25 mg/kg/day S-oxprenolol vs same amount of R-oxprenolol
[22] = S-oxprenolol vs placebo or S-pindolol 3 mg/kg/day, FIG. 4

Compound | weight of white adipose tissue (WAT) [1, 11] | weight of brown adipose tissue (BAT) [1, 12] | change in lean body mass [2, 13] | change in lean body mass/days alive [2, 14] | change in body weight [3] | percent survival [4, 15] | change in fat mass ([1]; 5, 12.5, 25 or 50 mg/kg/day) | weight of white adipose tissue (WAT) [1, 16] | weight of brown adipose tissue (BAT) [1, 17] | change in lean body mass [2, 18] | change of body weight [3] | tumor cell proliferation [5] | tumor cell proliferation [6] | tumor cell proliferation [7] | percent survival [4, 19] | survival [4] | mass of skeletal muscle (gastrocnemius, tibialis anterior, soleus, EDL) [8] | food intake [9, 20] | locomotor activity [9, 20] | food intake [9, 21] | further results
C=CCOc1ccccc1OCC(O)CNC(C)C (racemic) [racemic mixture of oxprenolol, 1-[2-(allyloxy)phenoxy]-3-(isopropylamino)propan-2-ol, reference compound] | rats receiving S-oxprenolol had significantly better effect in preserving the white adipose tissue than those receiving the racemic mixture | rats receiving S-oxprenolol had better effect in preserving the brown adipose tissue than those receiving the racemic mixture | rats receiving S-oxprenolol had less change in lean body weight than those receiving the racemic mixture | rats receiving S-oxprenolol had less change in lean body mass than those receiving the racemic mixture | rats receiving S-oxprenolol had less body weight loss than those receiving the racemic mixture | rats receiving S-oxprenolol had longer survival than those receiving the racemic mixture |  |  |  |  |  |  |  |  |  |  |  |  |  |  | 
C=CCOc1ccccc1OC[C@H](O)CNC(C)C [R-oxprenolol, (R)-(+)-oxprenolol, reference compound] |  |  |  |  |  |  | rats receiving S-oxprenolol at 12.5 mg/kg/day or higher had less fat mass loss than those in the placebo group or those receiving R-oxprenolol | S-oxprenolol had better effects in reducing fat wasting than R-oxprenolol | both enantiomers of oxprenolol protect BAT mass | rats receiving S-oxprenolol at doses of 12.5 mg/kg/day or higher had less change in lean body mass than those receiving R-oxprenolol | rats receiving S-oxprenolol had less body weight loss than those in the placebo group and those administered with R-oxprenolol | neither S-oxprenolol nor R-oxprenolol showed any inhibitor effects on tumor cell proliferation | neither S-oxprenolol nor R-oxprenolol showed any inhibitor effects on tumor cell proliferation | neither S-oxprenolol nor R-oxprenolol showed any inhibitor effects on tumor cell proliferation | did not show statistically significant improvement on survival over those in the placebo group | S-oxprenolol, but not R-oxprenolol, significantly improved survival | does not have this protective effect | higher food intake than those in the placebo group | higher locomotive activity than those in the placebo group | Rats receiving 25 mg/kg/day S-oxprenolol had higher food intake than those receiving the same amount of R-oxprenolol | percent survival ([4]; R-oxprenolol 5, 12.5, 25 or 50 mg/kg/day, FIG. 6): no statistically significant survival benefit over placebo was observed; locomotor activity [9, 21]: Rats receiving 25 mg/kg/day S-oxprenolol had higher locomotive activity than those receiving the same amount of R-oxprenolol; tumor growth (tumor volume, total number of cells in a tumor) [10]: did not have any significant effects on tumor growth compared to those in the placebo group
C=CCOc1ccccc1OC[C@@H](O)CNC(C)C [S-oxprenolol, (S)-(−)-oxprenolol] | significantly better effect in preserving the white adipose tissue than those receiving the racemic mixture | better effect in preserving the brown adipose tissue than those receiving the racemic mixture | less change in lean body weight than those receiving the racemic mixture | less change in lean body mass than those receiving the racemic mixture | less body weight loss than those receiving the racemic mixture | longer survival than those receiving the racemic mixture; also recorded: had an improved effect on survival than the racemic mixture | rats receiving S-oxprenolol at 12.5 mg/kg/day or higher had less fat mass loss than those in the placebo group or those receiving R-oxprenolol | better effects in reducing fat wasting than R-oxprenolol | both enantiomers of oxprenolol protect BAT mass | rats receiving S-oxprenolol at doses of 12.5 mg/kg/day or higher had less change in lean body mass than those receiving R-oxprenolol | less body weight loss than those in the placebo group and those administered with R-oxprenolol | neither S-oxprenolol nor R-oxprenolol showed any inhibitor effects on tumor cell proliferation | neither S-oxprenolol nor R-oxprenolol showed any inhibitor effects on tumor cell proliferation | neither S-oxprenolol nor R-oxprenolol showed any inhibitor effects on tumor cell proliferation | longer survival than those in the placeo group or those receiving R-oxprenolol | significantly improved survival in animals having cancer | reduces wasting of individual hind limb muscles independent of their composition of slow and fast twitch muscle fibers | higher food intake than those in the placebo group | higher locomotive activity than those in the placebo group | higher food intake than those receiving the same amount of R-oxprenolol | change in lean body mass, comparison of dosages ([2]; S-oxprenolol 12.5, 25, 50, 70 or 100 mg/kg/day, FIG. 12A): rats receiving 100 mg/kg/day of S-oxprenolol had the least change in lean body mass compared to rats receiving other doses; change in lean body mass/days alive, comparison of dosages ([2]; S-oxprenolol 12.5, 25, 50, 70 or 100 mg/kg/day, FIG. 12B): rats receiving 100 mg/kg/day of S-oxprenolol had the least change in lean body mass/days alive compared to rats receiving other doses; change in body weight, comparison of dosages ([3]; S-oxprenolol 12.5, 25, 50, 70 or 100 mg/kg/day, FIG. 9): rats receiving 50 mg/kg/day or 100 mg/kg/day of the S-oxprenolol had the least body weight loss; percent survival, comparison of dosages ([4]; S-oxprenolol 5, 12.5, 25, 50, 70 or 100 mg/kg/day, FIGS. 4 and 5): 50 mg/kg/day S-oxprenolol had the best effect on survival among all dosages tested; percent survival [4, 22]: significantly superior to either placebo or S-pindolol at its preferred dose; locomotor activity [9, 21]: higher locomotive activity than those receiving the same amount of R-oxprenolol; tumor growth (tumor volume, total number of cells in a tumor) [10]: did not have any significant effects on tumor growth compared to those in the placebo group
CC(C)NC[C@H](O)COc1cccc2[nH]ccc12 [S-pindolol, reference compound] |  |  |  |  |  |  |  |  |  |  |  |  |  |  |  |  |  |  |  |  | percent survival [4, 22]: S-oxprenolol was significantly superior to either placebo or S-pindolol at its preferred dose
